Measured values taken from the METLIN SMRT retention time set (Domingo-Almenara et al. 2019).

Assay: gradient 5% acetonitrile 3 min, to 50% in 2 min, to 85% in 15 min, held 3 min, 100 µL/min
Settings: column: Zorbax Extend-C18 2.1 x 50 mm; eluents: water / acetonitrile, 0.1% formic acid
Summary of the method: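 Mixtures of ~100 pure standards were chromatographed on a Zorbax Extend-C18 column (2.1 × 50 mm, 1.8 μm) at 100 μL/min using water and acetonitrile, each with 0.1% formic acid. Detection used a quadrupole time-of-flight mass spectrometer in positive and negative ionization mode, and data collection spanned 3 months. Retention time was obtained from adduct peaks picked computationally and each checked manually.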

RP-LC retention time [s] | Structure (SMILES)
586 | OCCc1nc2ccccc2n1C/C=C/c1ccccc1
1190 | CC(CCc1ccccc1)NC(=O)c1cc2sccc2n1Cc1ccc(F)cc1 (stereo unspecified)
646 | Cc1nn(-c2cc(N3CCCCC3)ncn2)c(C)c1CCC(=O)NCc1ccccn1
845 | Cn1cc(C(=O)NCc2ccc(F)cc2)c(S(=O)(=O)N2CCSCC2)n1
699 | CNC(=O)c1cc2n(n1)CCCN(Cc1ccc(C)cc1)C2=O
753 | COc1ccccc1NC(=O)C1CCN(C(=O)C2Sc3ccccc3NC2=O)CC1 (stereo unspecified)
1120 | COCCCn1c(=O)c2ccccc2n(Cc2nc(-c3ccc(OC(C)C)cc3)no2)c1=O
572 | Cc1noc(C)c1CN1CCN(C(=O)c2cc(-c3ccco3)on2)CC1
632 | CC(C)n1c(CCNC(=O)c2c(F)cccc2F)nc2cccnc21
769 | O=C(NCc1csc(-c2cccs2)n1)C1CCN(C(=O)c2c(F)cccc2F)CC1
732 | CCC(CO)Nc1nc2ccc(Cl)cc2c2ccccc12 (stereo unspecified)
840 | O=C(Cc1csc(-n2cccc2)n1)NCCc1c[nH]c2ccccc12
583 | COCCO[C@H]1C(=O)N(C2CCN(S(=O)(=O)c3cccnc3)CC2)[C@H]1c1ccncc1
612 | Cc1cc(=O)n(CC(=O)Nc2c(C)cccc2C)c(N2CCOCC2)n1
593 | COc1ccc(C2(C(=O)N3CC(c4ncc(C)n4Cc4cccnc4)C3)CC2)cc1
830 | COCCCNC(=O)Cc1csc(SCc2ccc(Br)cc2)n1
679 | CN(C)c1ncncc1N1CCC(C(=O)NCCC2=CCCCC2)CC1
928 | Clc1ccccc1-c1ccnc2nc(-c3ccccc3)nn12
700 | COc1ccc(CNC(=O)C2(C)CCN(C(=O)NCc3ccco3)CC2)cc1
1060 | CCN1C(=O)COc2ccc(-c3noc(-c4cc(OC)c(OC)c(OC)c4)n3)cc21
614 | CC(C)(C)NC(=O)N1CCCN(S(C)(=O)=O)CC1
1200 | CCCN1C(=O)COc2ccc(-c3noc(-c4cccc(F)c4)n3)cc21
770 | COCCN(C)C(=O)c1cc2c(s1)N(C)CCCC2

RP-LC retention time [s] | Structure (SMILES)
760 | O=C(NCCc1csc(C2CCCN(C(=O)C3CCCCC3)C2)n1)C1CC1 (stereo unspecified)
966 | CCCN1C(=O)C(C)(C(=O)Nc2ccc(OCC)cc2)Oc2cccnc21 (stereo unspecified)
586 | Cc1cc(N2CCN(C)CC2)nc2ccc(NC(=S)NCc3ccc4c(c3)OCO4)cc12
742 | COC(=O)CCSCC(=O)Nc1ccc(C)cc1C
1150 | CC1CCN(S(=O)(=O)c2cccc(-c3nnc(-c4ccc(F)cc4)o3)c2)CC1
585 | CN(C)c1ccc(NC(=O)COc2ccc(-c3nnc4n3CCCC4)cc2)cc1
925 | CCc1cccc(NC(=O)N2CCCC2c2nc(-c3ccc(OC)cc3)no2)c1 (stereo unspecified)
770 | CSc1cccc(NC(=O)N2CCC(N3CCN(Cc4ccccc4)C(=O)C3=O)CC2)c1
881 | CCc1cccc(C)c1NC(=O)Cn1c(=O)n(-c2cccc(C)c2)c(=O)c2c1cc(C)n2C
885 | O=C(NCc1ccc(F)cc1F)C1CCCN(c2nc3ccsc3c(=O)n2-c2ccc(F)cc2)C1 (stereo unspecified)
639 | CCc1cc(=O)n(CC(=O)Nc2ccccc2C)c(N)n1
752 | CCN1C(=O)CC[C@]2(CN(C)C(=O)Cc3cccc(F)c3)CCC[C@@H]12
952 | O=C(Cn1c(=O)cc(-c2nc(C3CC3)no2)c2ccccc21)Nc1cccc(F)c1
1050 | Cn1nccc1-c1cccc(-c2noc(Cc3ccccc3F)n2)c1
742 | O=C(Cn1nc(N2CCOCC2)c2ccccc2c1=O)Nc1ccccc1
743 | COc1ccc(-c2c(C)noc2NC(C)=O)cc1S(=O)(=O)Nc1ccc(F)cc1F
747 | Cc1cccc(-c2noc(-c3ccc(=O)n(Cc4cccnc4)c3)n2)c1
777 | CN(C1CCc2nn(CC3CC3)c(=O)n2CC1)S(=O)(=O)c1cccc(F)c1 (stereo unspecified)
983 | COc1ccc(-c2ncc3c(n2)CCN(C(=O)c2ccccc2C(F)(F)F)C3)cc1
555 | O=C(c1ccco1)N1CCC(O)(c2ccccc2)[C@H](N2CCCC2)C1 (stereo partly specified)
1080 | CCOc1ccccc1-c1noc(Cn2c(=O)n(Cc3ccc(OC)cc3)c(=O)c3sccc32)n1
758 | COc1ccc(NC(=O)CN2C(=O)c3ccccc3Sc3ncccc32)cc1
600 | CCc1nc2cc(N3CCCC(C(=O)NCc4cccnc4)C3)cnc2nc1CC (stereo unspecified)

RP-LC retention time [s] | Structure (SMILES)
799 | Cc1ccc(OCC(=O)N(C)CC2(C)CCOCC2)cc1
1030 | Cc1ccc(CNC(=O)C2(C)CCN(S(=O)(=O)c3ccc(Br)cc3)CC2)cc1
959 | CCc1noc(NC(C)=O)c1-c1ccc(C)c(S(=O)(=O)NC2CCCCCCC2)c1
674 | COc1ccc(Nc2c(-c3ccc(N4CCOCC4)cc3)nc3cnccn23)cc1OC
592 | CC(C)OCCCNCc1ccc2c(c1)n(C)c(=O)n2C
567 | Cc1nc(C)c(C(=O)N2CC(N(CC(C)C)C3CCN(C)CC3)C2)s1
885 | CCc1ccc(CNC(=O)Cn2c(C)nc3onc(CC)c3c2=O)cc1
1140 | O=C(c1ccc(Cl)cc1)N1CCc2nc(-c3ccc(Cl)cc3)ncc2C1
655 | CCC1CN2C=NC(N3CCN(C(=O)Nc4ccc(SC)cc4)CC3)=CC2=N1 (stereo unspecified)
800 | COc1ccc(C)c2sc(NC(=O)c3cc(C)no3)nc12
856 | CCOCCOC1CCN(S(=O)(=O)Cc2ccccc2)CC1
934 | CCCS(=O)(=O)N1CCCN(C2=NS(=O)(=O)C(c3ccc(Cl)cc3)=C2C)CC1
705 | Cn1c(=O)c2ccn(CC(=O)Nc3cccc(C(F)(F)F)c3)c2n(C)c1=O
922 | Cc1cc2nn(CC(=O)N3CCCC3)c(=O)n2c(Nc2ccc(C)c(F)c2)n1
699 | CC(C)CN1CCN(C(=O)c2cn(-c3ccc(-c4nc(C(C)(C)C)no4)cn3)cn2)CC1
903 | O=C(Cn1nc(C(=O)N2CCCC2)c2ccccc21)Nc1cccc(Br)c1
828 | COc1cccc(Nc2c(-c3ccccc3)nc3cnccn23)c1
842 | COCCn1cc2c3c(cccc31)CN(C(=O)NCc1ccc(F)cc1)CC2
998 | O=C(Nc1ccccc1C(F)(F)F)C1CCCN(C(=O)Cc2cccc3ccccc23)C1 (stereo unspecified)
587 | CCC(C)(C)NC(=O)Cn1ncc2c(N3CCN(c4ccccn4)CC3)ncnc21
644 | c1ccc(-c2nc(-c3ccccn3)nc(-c3ccccn3)n2)nc1
717 | CCOC(=O)Nc1ccccc1NC(=O)OCC
629 | COc1cc2c(cc1OC)C1C(C(=O)NCCCN3CCC(C)CC3)c3ccccc3C(=O)N1CC2 (stereo unspecified)

RP-LC retention time [s] | Structure (SMILES)
752 | CC(C)Oc1ccccc1CN1CC(F)(F)C[C@H]1COc1ccncc1
836 | CC(C)c1cc(C(=O)NC2CCCCCC2)n[nH]1
1040 | CCS(=O)(=O)N1CC(=O)N(Cc2ccc(Cl)cc2)C(C)(C(=O)NC2CCCCCCC2)C1 (stereo unspecified)
1140 | CCCCNC(=O)c1cn(CCC)nc1S(=O)(=O)N1CCN(c2ccccc2OCC)CC1
871 | O=C(NCc1cccc(C(F)(F)F)c1)C1CCN(c2ccc(SCc3ccccc3)nn2)CC1
956 | CC1(C(=O)NCc2ccccc2)CN(S(=O)(=O)c2ccccc2)CC(=O)N1c1ccc(Cl)cc1 (stereo unspecified)
752 | CCCC(=O)Nc1nc(-c2ccc3c(c2)NC(=O)CO3)c(C)s1
557 | O=C(c1ccsc1)N1CCC2(CC1)CC(N1CCOCC1)CCO2 (stereo unspecified)
1380 | Cc1ccc(-c2csc(NC(=O)COc3ccccc3C(C)(C)C)n2)cc1
859 | CCn1cc(C)c(C(=O)O)c1CC(=O)Nc1cc(F)ccc1F
1110 | Cc1ccccc1Cc1nc(-c2cccc(-c3ccnn3C)c2)no1
625 | Cc1nn(CC(=O)NCCN(C)C)c(=O)c2cc(-c3ccccc3)nn12
704 | Cc1cc(C)c(S(=O)(=O)N(CC(=O)N2CCNCC2)CC2CCCO2)cc1C (stereo unspecified)
809 | Cc1ccccc1CNC(=O)C1(C)CCCN(C(=O)NCc2ccco2)C1 (stereo unspecified)
809 | CCc1c(C(=O)O)nnn1-c1ccc(C)c(Cl)c1
881 | Cc1cc(-c2nnc(-c3ccco3)o2)c(C)n1CC(=O)Nc1cccc(F)c1
921 | Cc1cc(C)c(CNC(=O)c2c(C)sc3ccn(C)c(=O)c23)c(C)c1
664 | O=C(Nc1cccc(-c2cn3cccnc3n2)c1)c1ccccc1F
1180 | O=C1CN(S(=O)(=O)c2ccc(Cl)s2)CC2(CCCCC2)N1Cc1ccccc1
601 | CCn1ncc(CN2CCC[C@H]2c2nc(-c3ccccc3)n[nH]2)c1C
857 | COc1cccc(-c2nc(N3CCSCC3)ncc2C(=O)O)c1
951 | CCOC(=O)C1CCN(C(=O)c2cc3sc(C)cc3n2C)CC1
